Test results as given in patent US20230085307A1, “PYRIDAZINONE COMPOUND AND HERBICIDE” (NISSAN CHEMICAL CORPORATION, priority 2019, published 2023).

Assays:
[1] = test system: barnyard grass; assay: Test Example 3: herbicidal effect by foliage application, Wagner pot (Table 18, symbol H); assay type: in vivo, barnyard grass (Echinochloa crus-galli)
Procedure, shortened: (§1)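 Plants were sown in alluvial soil held under 0.1–0.5 cm standing water and grown 14 days in a greenhouse at 25–30 °C. An emulsifiable formulation, water-diluted to the set dose, was then sprayed onto the foliage, and effects were scored three weeks later using previously defined criteria.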

[2] = test system: Chinese sprangletop; assay: Test Example 3: herbicidal effect by foliage application, Wagner pot (Table 18, symbol D); assay type: in vivo, chinese sprangletop (Leptochloa chinensis)
Procedure, shortened: as §1

[3] = test system: rice flat sedge; assay: Test Example 3: herbicidal effect by foliage application, Wagner pot (Table 18, symbol E); assay type: in vivo, rice flat sedge (Cyperus iria)
Procedure, shortened: as §1

[4] = test system: southern crabgrass; assay: Test Example 4: herbicidal effect by soil treatment (Table 19, symbol F); assay type: in vivo, southern crabgrass (Digitaria ciliaris)
Procedure, shortened: (§2)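 Pre-emergence style soil spray: seeds under ~1.5 cm sterilized diluvial soil received a uniform coat of emulsion diluted to the predetermined herbicide amount. Greenhouse 25–30° C; readout at week three on previously defined criteria.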

[5] = test system: green foxtail; assay: Test Example 4: herbicidal effect by soil treatment (Table 19, symbol G); assay type: in vivo, green foxtail (Setaria viridis)
Procedure, shortened: as §2

[6] = test system: barnyard grass; assay: Test Example 4: herbicidal effect by soil treatment (Table 19, symbol H); assay type: in vivo, barnyard grass (Echinochloa crus-galli)
Procedure, shortened: as §2

[7] = test system: wild oat; assay: Test Example 4: herbicidal effect by soil treatment (Table 19, symbol I); assay type: in vivo, wild oat (Avena fatua)
Procedure, shortened: as §2

[8] = test system: blackgrass; assay: Test Example 4: herbicidal effect by soil treatment (Table 19, symbol J); assay type: in vivo, blackgrass (Alopecurus myosuroides)
Procedure, shortened: as §2

[9] = test system: Italian ryegrass; assay: Test Example 4: herbicidal effect by soil treatment (Table 19, symbol K); assay type: in vivo, Italian ryegrass (Lolium multiflorum)
Procedure, shortened: as §2

[10] = test system: windgrass; assay: Test Example 4: herbicidal effect by soil treatment (Table 19, symbol L); assay type: in vivo, windgrass (Apera spica-venti)
Procedure, shortened: as §2

[11] = test system: velvetleaf; assay: Test Example 4: herbicidal effect by soil treatment (Table 19, symbol M); assay type: in vivo, velvetleaf (Abutilon theophrasti)
Procedure, shortened: as §2

[12] = test system: redroot pigweed; assay: Test Example 4: herbicidal effect by soil treatment (Table 19, symbol N); assay type: in vivo, redroot pigweed (Amaranthus retroflexus)
Procedure, shortened: as §2

[13] = test system: lambsquarters; assay: Test Example 4: herbicidal effect by soil treatment (Table 19, symbol O); assay type: in vivo, lambsquarters (Chenopodium album)
Procedure, shortened: as §2

[14] = test system: chickweed; assay: Test Example 4: herbicidal effect by soil treatment (Table 19, symbol P); assay type: in vivo, common chickweed (Stellaria media)
Procedure, shortened: as §2

[15] = test system: persian speedwell; assay: Test Example 4: herbicidal effect by soil treatment (Table 19, symbol R); assay type: in vivo, Persian speedwell (Veronica persica)
Procedure, shortened: as §2

[16] = test system: southern crabgrass; assay: Test Example 5: herbicidal effect by foliage application, plastic box (Table 20, symbol F); assay type: in vivo, southern crabgrass (Digitaria ciliaris); conditions: foliage application, 3 weeks after application
Procedure, shortened: (§3)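 Plants were sown into sterilized diluvial soil under about 1.5 cm cover and kept in a greenhouse at 25° C. to 30° C. Fourteen days on, foliage received an even spray of the diluted emulsion. Herbicidal or crop effect was judged three weeks afterwards.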

[17] = test system: green foxtail; assay: Test Example 5: herbicidal effect by foliage application, plastic box (Table 20, symbol G); assay type: in vivo, green foxtail (Setaria viridis); conditions: foliage application, 3 weeks after application
Procedure, shortened: as §3

[18] = test system: barnyard grass; assay: Test Example 5: herbicidal effect by foliage application, plastic box (Table 20, symbol H); assay type: in vivo, barnyard grass (Echinochloa crus-galli); conditions: foliage application, 3 weeks after application
Procedure, shortened: as §3

[19] = test system: wild oat; assay: Test Example 5: herbicidal effect by foliage application, plastic box (Table 20, symbol I); assay type: in vivo, wild oat (Avena fatua); conditions: foliage application, 3 weeks after application
Procedure, shortened: as §3

[20] = test system: blackgrass; assay: Test Example 5: herbicidal effect by foliage application, plastic box (Table 20, symbol J); assay type: in vivo, blackgrass (Alopecurus myosuroides); conditions: foliage application, 3 weeks after application
Procedure, shortened: as §3

[21] = test system: Italian ryegrass; assay: Test Example 5: herbicidal effect by foliage application, plastic box (Table 20, symbol K); assay type: in vivo, Italian ryegrass (Lolium multiflorum); conditions: foliage application, 3 weeks after application
Procedure, shortened: as §3

[22] = test system: windgrass; assay: Test Example 5: herbicidal effect by foliage application, plastic box (Table 20, symbol L); assay type: in vivo, windgrass (Apera spica-venti); conditions: foliage application, 3 weeks after application
Procedure, shortened: as §3

[23] = test system: velvetleaf; assay: Test Example 5: herbicidal effect by foliage application, plastic box (Table 20, symbol M); assay type: in vivo, velvetleaf (Abutilon theophrasti); conditions: foliage application, 3 weeks after application
Procedure, shortened: as §3

[24] = test system: lambsquarters; assay: Test Example 5: herbicidal effect by foliage application, plastic box (Table 20, symbol O); assay type: in vivo, lambsquarters (Chenopodium album); conditions: foliage application, 3 weeks after application
Procedure, shortened: as §3

[25] = test system: persian speedwell; assay: Test Example 5: herbicidal effect by foliage application, plastic box (Table 20, symbol R); assay type: in vivo, Persian speedwell (Veronica persica); conditions: foliage application, 3 weeks after application
Procedure, shortened: as §3

[26] = amount of applied herbicide 320 g/ha

## COc1nn(C)c(=O)c(-c2c(-c3ccsc3)sc3ccccc23)c1O [1-192]
[1]; 80 g/ha
  herbicidal effect on H (barnyard grass), rating 0-5: 1 (Herbicidal rate of 5% or more and less than 20%)
[2]; 80 g/ha
  herbicidal effect on D (Chinese sprangletop), rating 0-5: 4 (Herbicidal rate of 70% or more and less than 90%)
[3]; 80 g/ha
  herbicidal effect on E (rice flat sedge), rating 0-5: 4 (Herbicidal rate of 70% or more and less than 90%)
[4]; AAH 80 g/ha
  F: southern crabgrass, herbicidal effect rating: 0 (Herbicidal rate of 5% or less (almost no effect))
[5]; AAH 80 g/ha
  G: green foxtail, herbicidal effect rating: 0 (Herbicidal rate of 5% or less (almost no effect))
[6]; AAH 80 g/ha
  H: barnyard grass, herbicidal effect rating: 0 (Herbicidal rate of 5% or less (almost no effect))
[7]; AAH 80 g/ha
  I: wild oat, herbicidal effect rating: 0 (Herbicidal rate of 5% or less (almost no effect))
[8]; AAH 80 g/ha
  J: blackgrass, herbicidal effect rating: 0 (Herbicidal rate of 5% or less (almost no effect))
[9]; AAH 80 g/ha
  K: Italian ryegrass, herbicidal effect rating: 0 (Herbicidal rate of 5% or less (almost no effect))
[10]; AAH 80 g/ha
  L: windgrass, herbicidal effect rating: 0 (Herbicidal rate of 5% or less (almost no effect))
[11]; AAH 80 g/ha
  M: velvetleaf, herbicidal effect rating: 0 (Herbicidal rate of 5% or less (almost no effect))
[12]; AAH 80 g/ha
  N: redroot pigweed, herbicidal effect rating: 0 (Herbicidal rate of 5% or less (almost no effect))
[13]; AAH 80 g/ha
  O: lambsquarters, herbicidal effect rating: 0 (Herbicidal rate of 5% or less (almost no effect))
[14]; AAH 80 g/ha
  P: chickweed, herbicidal effect rating: 3 (Herbicidal rate of 40% or more and less than 70%)
[15]; AAH 80 g/ha
  R: persian speedwell, herbicidal effect rating: 0 (Herbicidal rate of 5% or less (almost no effect))
[16]; 80 g/ha
  effect on southern crabgrass (F): 0 (Herbicidal rate of 5% or less (almost no effect))
[17]; 80 g/ha
  effect on green foxtail (G): 0 (Herbicidal rate of 5% or less (almost no effect))
[18]; 80 g/ha
  effect on barnyard grass (H): 0 (Herbicidal rate of 5% or less (almost no effect))
[19]; 80 g/ha
  effect on wild oat (I): 0 (Herbicidal rate of 5% or less (almost no effect))
[20]; 80 g/ha
  effect on blackgrass (J): 0 (Herbicidal rate of 5% or less (almost no effect))
[21]; 80 g/ha
  effect on Italian ryegrass (K): 0 (Herbicidal rate of 5% or less (almost no effect))
[22]; 80 g/ha
  effect on windgrass (L): 0 (Herbicidal rate of 5% or less (almost no effect))
[23]; 80 g/ha
  effect on velvetleaf (M): 0 (Herbicidal rate of 5% or less (almost no effect))
[24]; 80 g/ha
  effect on lambsquarters (O): 0 (Herbicidal rate of 5% or less (almost no effect))
[25]; 80 g/ha
  effect on persian speedwell (R): 3 (Herbicidal rate of 40% or more and less than 70%)

## Cc1nn(C)c(=O)c(-c2c(-c3ccc(OC(F)(F)F)cc3)sc3ccc(F)cc23)c1O [2-045]
[1]; 320 g/ha
  herbicidal effect on H (barnyard grass), rating 0-5: 5 (Herbicidal rate of 90% or more (almost completely withered))
[2]; 320 g/ha
  herbicidal effect on D (Chinese sprangletop), rating 0-5: 2 (Herbicidal rate of 20% or more and less than 40%)
[3]; 320 g/ha
  herbicidal effect on E (rice flat sedge), rating 0-5: 5 (Herbicidal rate of 90% or more (almost completely withered))
[4]; 320 g/ha
  herbicidal effect rating, F: southern crabgrass: 3 (Herbicidal rate of 40% or more and less than 70%)
[5]; 320 g/ha
  herbicidal effect rating, G: green foxtail: 4 (Herbicidal rate of 70% or more and less than 90%)
[6]; 320 g/ha
  herbicidal effect rating, H: barnyard grass: 1 (Herbicidal rate of 5% or more and less than 20%)
[7]; 320 g/ha
  herbicidal effect rating, I: wild oat: 0 (Herbicidal rate of 5% or less (almost no effect))
[8]; 320 g/ha
  herbicidal effect rating, J: blackgrass: 0 (Herbicidal rate of 5% or less (almost no effect))
[9]; 320 g/ha
  herbicidal effect rating, K: Italian ryegrass: 5 (Herbicidal rate of 90% or more (almost completely withered))
[10]; 320 g/ha
  herbicidal effect rating, L: windgrass: 0 (Herbicidal rate of 5% or less (almost no effect))
[11]; 320 g/ha
  herbicidal effect rating, M: velvetleaf: 4 (Herbicidal rate of 70% or more and less than 90%)
[12]; 320 g/ha
  herbicidal effect rating, N: redroot pigweed: 4 (Herbicidal rate of 70% or more and less than 90%)
[13]; 320 g/ha
  herbicidal effect rating, O: lambsquarters: 5 (Herbicidal rate of 90% or more (almost completely withered))
[14]; 320 g/ha
  herbicidal effect rating, P: chickweed: 5 (Herbicidal rate of 90% or more (almost completely withered))
[15]; 320 g/ha
  herbicidal effect rating, R: persian speedwell: 5 (Herbicidal rate of 90% or more (almost completely withered))
[16]; 320 g/ha
  effect on southern crabgrass (F): 0 (Herbicidal rate of 5% or less (almost no effect))
[17]; 320 g/ha
  effect on green foxtail (G): 5 (Herbicidal rate of 90% or more (almost completely withered))
[18]; 320 g/ha
  effect on barnyard grass (H): 5 (Herbicidal rate of 90% or more (almost completely withered))
[19]; 320 g/ha
  effect on wild oat (I): 0 (Herbicidal rate of 5% or less (almost no effect))
[20]; 320 g/ha
  effect on blackgrass (J): 0 (Herbicidal rate of 5% or less (almost no effect))
[21]; 320 g/ha
  effect on Italian ryegrass (K): 5 (Herbicidal rate of 90% or more (almost completely withered))
[22]; 320 g/ha
  effect on windgrass (L): 5 (Herbicidal rate of 90% or more (almost completely withered))
[23]; 320 g/ha
  effect on velvetleaf (M): 5 (Herbicidal rate of 90% or more (almost completely withered))
[24]; 320 g/ha
  effect on lambsquarters (O): 5 (Herbicidal rate of 90% or more (almost completely withered))
[25]; 320 g/ha
  effect on persian speedwell (R): 5 (Herbicidal rate of 90% or more (almost completely withered))

## CCCC(=O)Oc1c(C)nn(C)c(=O)c1-c1c(-c2cnccc2F)sc2ccc(F)cc12 [2-384]
[1]; [26]
  herbicidal effect on H: barnyard grass: 3 (Herbicidal rate of 40% or more and less than 70%)
[2]; [26]
  herbicidal effect on D: Chinese sprangletop: 3 (Herbicidal rate of 40% or more and less than 70%)
[3]; [26]
  herbicidal effect on E: rice flat sedge: 3 (Herbicidal rate of 40% or more and less than 70%)
[4]; [26]
  herbicidal effect, F: southern crabgrass: 3 (Herbicidal rate of 40% or more and less than 70%)
[5]; [26]
  herbicidal effect, G: green foxtail: 4 (Herbicidal rate of 70% or more and less than 90%)
[6]; [26]
  herbicidal effect, H: barnyard grass: 3 (Herbicidal rate of 40% or more and less than 70%)
[7]; [26]
  herbicidal effect, I: wild oat: 1 (Herbicidal rate of 5% or more and less than 20%)
[8]; [26]
  herbicidal effect, J: blackgrass: 0 (Herbicidal rate of 5% or less (almost no effect))
[9]; [26]
  herbicidal effect, K: Italian ryegrass: 4 (Herbicidal rate of 70% or more and less than 90%)
[10]; [26]
  herbicidal effect, L: windgrass: 0 (Herbicidal rate of 5% or less (almost no effect))
[11]; [26]
  herbicidal effect, M: velvetleaf: 2 (Herbicidal rate of 20% or more and less than 40%)
[12]; [26]
  herbicidal effect, N: redroot pigweed: 4 (Herbicidal rate of 70% or more and less than 90%)
[13]; [26]
  herbicidal effect, O: lambsquarters: 3 (Herbicidal rate of 40% or more and less than 70%)
[14]; [26]
  herbicidal effect, P: chickweed: 4 (Herbicidal rate of 70% or more and less than 90%)
[15]; [26]
  herbicidal effect, R: persian speedwell: 4 (Herbicidal rate of 70% or more and less than 90%)
